Reference: article PMC11923649, “Novel C-2 Aromatic Heterocycle-Substituted Triterpenoids Inhibit Hedgehog Signaling in GLI1 Overexpression Cancer Cells” (ACS Omega, 2025)

What was measured:
[1] = system: K562 (chronic myelogenous leukemia); test: MTS cytotoxicity assay, 72 h, K562; format: cell-based; conditions: Homo sapiens
Experimental: (§1) Based on the preliminary results and tests of a larger library of known triterpenoids, a small set of 2-substituted lupane and 18α-oleanane derivatives was designed and synthesized. As the first step, the cytotoxic activity of the synthesized derivatives was assessed using an MTS assay following 72 h of treatment (Table 1). Selected cell lines A549 (lung adenocarcinoma) and DU-145 (prostate cancer) are both dependent on Hh signaling. In addition, K562 (chronic myelogenous leukemia) was included as a cell line sensitive to Hh inhibitors[32] and a type of hematological malignancy with active Hh signaling.[33] MRC-5 lung fibroblasts and BJ human skin fibroblasts cell lines were used to evaluate the toxicity against nontumor cells. Compounds were also tested using the standard panel of other cancer cell lines, as described in our earlier work (Table 1).[27]
(§2) The human prostate tumor-derived cell line DU145 was obtained from ATCC (American Type Culture Collection) and cultured in RPMI 1640 (Roswell Park Memorial Institute) medium supplemented with 10% (v/v) fetal bovine serum (FBS). Human prostate tumor-derived LNCaP cells were obtained from ATCC and cultured in RPMI 1640 medium supplemented with 10% FBS. The human nonsmall cell lung carcinoma (NSCLC)-derived cell line HOP-62 was obtained from the DSMZ (German Collection of Microorganisms and Cell Cultures) and cultured in RPMI 1640 medium supplemented with 10% FBS. The human nonsmall cell lung carcinoma-derived cell line NCI-H322 was obtained from ECACC (European Collection of Authenticated Cell Cultures) and cultured in RPMI 1640 medium supplemented with 10% FBS. The human nonsmall cell lung carcinoma-derived cell line NCI-H522 was obtained from ATCC and cultured in RPMI 1640 medium supplemented with 10% FBS. The human lung tumor-derived cell line A549 was obtained from ATCC and cultured in Dulbecco’s Modified Eagle’s Medium (DMEM) supplemented with 10% FBS. The human medulloblastoma-derived cell line DAOY was obtained from ATCC and cultured in Eagle’s Minimum Essential Medium (EMEM) supplemented with 10% FBS. The human glioblastoma-derived cell line T98G was obtained from ATCC and cultured in EMEM medium supplemented with 10% FBS, 1 mmol/L sodium pyruvate, and 1 mmol/L nonessential amino acid mixture. All the above-mentioned cell lines were cultured at 37 °C in an atmosphere of 5% CO2 with 95% humidity. The cytotoxicity MTS assays were performed using MTS (3-(4,5-dimethylthiazol-2-yl)-5-(3-carboxymethoxyphenyl)-2-(4-sulfophenyl)-2H-tetrazolium) tetrazolium salt. Briefly, cells were seeded in a 384-well transparent plate in a volume of 25 μL and a concentration of 15,000 cells/mL (DU145, LNCaP, HOP-62, A549, DAOY, T98G) or 30,000 cells/mL (NCI-H322, NCI-H522). The next day, cells were exposed to compounds in a concentration range of 50–0.0975 μmol/L (dilution factor 2) and cultured in the presence of the compounds for 72 h. After 72 h, 5 μL of MTS/phenazine methosulfate solution was pipetted into each well and incubation continued for 1–4 h. Finally, the absorbance at 490 nm was measured using an EnVision multifunctional modular reader (PerkinElmer). The IC50 value was determined using Dotmatics software.

[2] = system: A549 (lung adenocarcinoma); test: MTS cytotoxicity assay, 72 h, A549; format: cell-based; conditions: Homo sapiens, A549, 72 h
Experimental: as §1, §2

CCRF-CEM = test: MTS cytotoxicity assay, 72 h, CCRF-CEM; format: cell-based; conditions: for IC50: Homo sapiens, CCRF-CEM, 72 h, MTS
Experimental: as §1, §2

U2OS = test: MTS cytotoxicity assay, 72 h, U2OS; format: cell-based; conditions: Homo sapiens
Experimental: as §1, §2

K562-TAX = test: MTS cytotoxicity assay, 72 h, K562-TAX; format: cell-based
Experimental: as §1, §2

DU-145 (prostate cancer) = test: MTS cytotoxicity assay, 72 h, DU-145; format: cell-based, human
Experimental: as §1, §2

[3] = system: BJ human skin fibroblasts; test: MTS cytotoxicity assay, 72 h, BJ fibroblasts; format: cell-based; conditions: normal fibroblasts; for IC50: Homo sapiens, Skin fibroblast
Experimental: as §1, §2

CEM-DNR = test: MTS cytotoxicity assay, 72 h, CEM-DNR; format: cell-based; conditions: Homo sapiens
Experimental: as §1, with “1).[27] […]” for “1).[27]”

HCT116 p53–/– = test: MTS cytotoxicity assay, 72 h, HCT116 p53–/–; format: cell-based; conditions: Homo sapiens, HCT-116, 72 h
Experimental: as §1, §2

HCT 116 = test: MTS cytotoxicity assay, 72 h, HCT 116; format: cell-based; conditions: Homo sapiens, HCT-116, 72 h
Experimental: as §1, §2

MRC-5 lung fibroblasts = test: MTS cytotoxicity assay, 72 h, MRC-5 fibroblasts; format: cell-based, human; conditions: normal fibroblasts; for IC50: Homo sapiens, MRC5, 72 h
Experimental: as §1, §2

[4] = CCRF-CEM vs average of BJ and MRC-5, full Table S1
[5] = Homo sapiens, DU-145, 72 h, full Table S1
[6] = IC50 of CCRF-CEM line vs average of both fibroblasts (BJ and MRC-5), Table 1
[7] = Homo sapiens, DU-145, 72 h, Table 1

SMILES	IC50 ([1]; full Table S1)	IC50 ([2]; full Table S1)	SI (selectivity index) (CCRF-CEM; [4])	IC50 (CCRF-CEM; full Table S1)	IC50 (U2OS; full Table S1)	IC50 (K562-TAX; full Table S1)	IC50 (DU-145 (prostate cancer); [5])	IC50 ([3]; full Table S1)	IC50 (CEM-DNR; full Table S1)	IC50 (HCT116 p53–/–; full Table S1)	IC50 (HCT 116; full Table S1)	IC50 (MRC-5 lung fibroblasts; full Table S1)	also measured
CC1(C)C(=O)C(c2cc3ccccc3s2)=C[C@@]2(C)C1CC[C@]1(C)C2CCC2C3[C@H]4OC[C@@]3(CCC4(C)C)CC[C@]21C (stereo partly drawn) [Compound 4k, 2-(Benzo[b]thien-2-yl)-19β,28-epoxyolean-1-en-3-one]	> 50 µM	> 50 µM	> 1.0	> 50 µM	> 50 µM	> 50 µM	> 50 µM	> 50 µM	> 50 µM	> 50 µM	> 50 µM	> 50 µM	–
C=C(C)[C@@H]1CC[C@]2(C(=O)O)CC[C@]3(C)C(CCC4[C@@]5(C)C=C(c6ccncc6)C(=O)C(C)(C)C5CC[C@]43C)C12 (stereo partly drawn) [Compound 11h, 2-(Pyridin-4-yl)-3-oxolupa-1,20(29)-dien-28-oic acid]	–	21.3 µM	–	–	28.4 µM	10.8 µM	10.8 µM	–	–	30.6 µM	25.1 µM	–	IC50 ([1]; Table 1): > 50 µM; IC50 ([2]; Table 1): 21 µM; IC50 (CCRF-CEM; Table 1): 5.2 µM; SI (selectivity index) (CCRF-CEM; [6]): >9.5; IC50 (U2OS; Table 1): 28 µM; IC50 (K562-TAX; Table 1): 11 µM; IC50 (DU-145 (prostate cancer); [7]): 11 µM; IC50 ([3]; Table 1): > 50 µM; IC50 BJ ([3]; Table 1): below the detection limit; IC50 (CEM-DNR; Table 1): 17 µM; IC50 (HCT116 p53–/–; Table 1): 31 µM; IC50 (HCT 116; Table 1): 25 µM; IC50 (MRC-5 lung fibroblasts; Table 1): > 50 µM; IC50 MRC-5 (MRC-5 lung fibroblasts; Table 1): below the detection limit
C=C(C)[C@@H]1CC[C@]2(C(=O)OCc3ccccc3)CC[C@]3(C)C(CCC4[C@@]5(C)C=C(c6ccsc6)C(=O)C(C)(C)C5CC[C@]43C)C12 (stereo partly drawn) [Compound 10d, Benzyl 2-(3-Thiophenyl)-3-oxolupa-1,20(29)-dien-28-oate]	> 50 µM	> 50 µM	> 1.0	> 50 µM	> 50 µM	> 50 µM	> 50 µM	> 50 µM	> 50 µM	> 50 µM	> 50 µM	> 50 µM	–
C=C(C)[C@@H]1CC[C@]2(C(=O)OCc3ccccc3)CC[C@]3(C)C(CCC4[C@@]5(C)C=C(c6cncc7ccccc67)C(=O)C(C)(C)C5CC[C@]43C)C12 (stereo partly drawn) [Compound 10l, Benzyl 2-(4-Isoquinoline)-3-oxolupa-1,20(29)-dien-28-oate]	> 50 µM	> 50 µM	> 1.0	> 50 µM	> 50 µM	> 50 µM	> 50 µM	> 50 µM	> 50 µM	> 50 µM	> 50 µM	> 50 µM	–
C=C(C)[C@@H]1CC[C@]2(C(=O)O)CC[C@]3(C)C(CCC4[C@@]5(C)C=C(c6ccc7c(c6)OCCO7)C(=O)C(C)(C)C5CC[C@]43C)C12 (stereo partly drawn) [Compound 11j, 2-(1,4-Benzodioxan)-3-oxolupa-1,20(29)-dien-28-oic acid]	–	13.5 µM	–	–	21.9 µM	16.5 µM	–	–	–	20.9 µM	22.1 µM	27.8 µM	IC50 ([1]; Table 1): 7.5 µM; IC50 ([2]; Table 1): 14 µM; IC50 (CCRF-CEM; Table 1): 4.9 µM; SI (selectivity index) (CCRF-CEM; [6]): >7.9; IC50 (U2OS; Table 1): 22 µM; IC50 (K562-TAX; Table 1): 17 µM; IC50 (DU-145 (prostate cancer); [7]): 7 µM; IC50 ([3]; Table 1): > 50 µM; IC50 (CEM-DNR; Table 1): 24 µM; IC50 (HCT116 p53–/–; Table 1): 21 µM; IC50 (HCT 116; Table 1): 22 µM; IC50 (MRC-5 lung fibroblasts; Table 1): 28 µM
CC1(C)C(=O)C(c2ccc(Cl)s2)=C[C@@]2(C)C1CC[C@]1(C)C2CCC2C3[C@H]4OC[C@@]3(CCC4(C)C)CC[C@]21C (stereo partly drawn) [Compound 4e, 2-(5-Chlorothiophen-2-yl)-19β,28-epoxyolean-1-en-3-one]	> 50 µM	> 50 µM	> 1.0	> 50 µM	> 50 µM	> 50 µM	> 50 µM	> 50 µM	> 50 µM	> 50 µM	> 50 µM	> 50 µM	–
CC1(C)C(=O)C(c2ccsc2)=C[C@@]2(C)C1CC[C@]1(C)C2CCC2C3[C@H]4OC[C@@]3(CCC4(C)C)CC[C@]21C (stereo partly drawn) [Compound 4d, 2-(Thiophene-3-yl)-19β,28-epoxyolean-1-en-3-one]	> 50 µM	> 50 µM	> 1.0	> 50 µM	> 50 µM	> 50 µM	> 50 µM	> 50 µM	> 50 µM	> 50 µM	> 50 µM	> 50 µM	–
CC1(C)C(=O)C(c2ccco2)=C[C@@]2(C)C1CC[C@]1(C)C2CCC2C3[C@H]4OC[C@@]3(CCC4(C)C)CC[C@]21C (stereo partly drawn) [Compound 4a, 2-(Furan-2-yl)-19β,28-epoxyolean-1-en-3-one]	> 50 µM	> 50 µM	> 1.0	> 50 µM	> 50 µM	> 50 µM	> 50 µM	> 50 µM	> 50 µM	> 50 µM	> 50 µM	> 50 µM	–
CN(C)c1ccccc1CN1CCCN(Cc2ccccc2N(C)C)C1c1ccncc1 [GANT-61, reference compound]	–	–	–	–	–	–	–	–	–	–	–	–	IC50 (DU-145 (prostate cancer); Table 1): > 50 µM
